Results as given in patent US20260193271A1, “PAN-KRAS INHIBITOR COMPOUND” (ADLAI NORTYE BIOPHARMA CO., LTD., priority 2022, published 2026).

Key:
SW480 (G12V) = assay: In vitro cell proliferation inhibition test (CellTiter-Glo), SW480; assay type: cell-based; conditions: Homo sapiens, SW480 colon cell line, KRAS (p.G12V), 72 h co-incubation
In short: (§1)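 Cells were seeded at 1000-5000/well by doubling time and cultured overnight at 37 °C, 5% CO2. They were then exposed for 72 h to 10-point, 3-fold compound dilutions (final top 10 μM), and viability was read by CellTiter-Glo luminescence. IC50 came from normalized signals fitted by four-parameter regression.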

AsPC-1 (G12D) = assay: In vitro cell proliferation inhibition test (CellTiter-Glo), AsPC-1; assay type: cell-based; conditions: Homo sapiens, ASPC1, AsPC-1 pancreas cell line, KRAS (p.G12D), 72 h co-incubation
In short: as §1

Row | IC50 (SW480 (G12V)) [nM] | IC50 (AsPC-1 (G12D)) [nM] | SMILES
1 | 1.6 | 1.3 | CCn1c(-c2cc(-c3cc([C@@H]4COCCN4C)on3)cnc2[C@H](C)OC)c2c3cc(ccc31)-c1csc(n1)C[C@H](NC(=O)[C@H]1[C@H](C)[C@@H]1C)C(=O)N1CCC[C@H](N1)C(=O)OCC(C)(C)C2 (atropisomer, axis not shown) [Compound 32, (1r,2R,3S)-N-((6^3S,4S,Z)-1^1-ethyl-1^2-(2-((S)-1-methoxyethyl)-5-(5-((S)-4-methylmorpholin-3-yl)isoxazol-3-yl)pyridin-3-yl)-10,10-dimethyl-5,7-dioxo-6^1,6^2,6^3,6^4,6^5,6^6-hexahydro-1^1H-8-oxa-2(4,2)-thiazola-1(5,3)-indola-6(1,3)-pyridazinacycloundecaphane-4-yl)-2,3-dimethylcyclopropane-1-carboxamide]
2 | 2.1 | 0.86 | CCn1c(-c2cc(-c3cc([C@H]4COCCN4C)on3)cnc2[C@H](C)OC)c2c3cc(ccc31)-c1csc(n1)C[C@H](NC(=O)[C@H]1[C@H](C)[C@@H]1C)C(=O)N1CCC[C@H](N1)C(=O)OCC(C)(C)C2 (atropisomer, axis not shown) [Compound 33, (1r,2R,3S)-N-((6^3S,4S,Z)-1^1-ethyl-1^2-(2-((S)-1-methoxyethyl)-5-(5-((R)-4-methylmorpholin-3-yl)isoxazol-3-yl)pyridin-3-yl)-10,10-dimethyl-5,7-dioxo-6^1,6^2,6^3,6^4,6^5,6^6-hexahydro-1^1H-8-oxa-2(4,2)-thiazola-1(5,3)-indola-6(1,3)-pyridazinacycloundecaphane-4-yl)-2,3-dimethylcyclopropane-1-carboxamide]
3 | 0.17 | 0.16 | CCn1c(-c2cc(-c3cc(C4(C)CN(C)C4)on3)cnc2[C@H](C)OC)c2c3cc(ccc31)-c1csc(n1)C[C@H](NC(=O)[C@H]1[C@H](C)[C@@H]1C)C(=O)N1CCC[C@H](N1)C(=O)OCC(C)(C)C2 (atropisomer, axis not shown) [Compound 34, (1r,2R,3S)-N-((6^3S,4S,Z)-1^2-(5-(5-(1,3-dimethylazetidin-3-yl)isoxazol-3-yl)-2-((S)-1-methoxyethyl)pyridin-3-yl)-1^1-ethyl-10,10-dimethyl-5,7-dioxo-6^1,6^2,6^3,6^4,6^5,6^6-hexahydro-1^1H-8-oxa-2(4,2)-thiazola-1(5,3)-indola-6(1,3)-pyridazinacycloundecaphane-4-yl)-2,3-dimethylcyclopropane-1-carboxamide]
4 | 2 | 4 | CCn1c(-c2cc(-c3cnc(CN4CCOCC4)cn3)cnc2[C@H](C)OC)c2c3cc(ccc31)-c1csc(n1)C[C@H](NC(=O)[C@H]1C[C@@H]1C)C(=O)N1CCC[C@H](N1)C(=O)OCC(C)(C)C2 (atropisomer, axis not shown) [Compound 35, (1S,2S)-N-((6^3S,4S,Z)-1^1-ethyl-1^2-(2-((S)-1-methoxyethyl)-5-(5-(morpholinomethyl)pyrazin-2-yl)pyridin-3-yl)-10,10-dimethyl-5,7-dioxo-6^1,6^2,6^3,6^4,6^5,6^6-hexahydro-1^1H-8-oxa-2(4,2)-thiazola-1(5,3)-indola-6(1,3)-pyridazinacycloundecaphane-4-yl)-2-methylcyclopropane-1-carboxamide]
5 | 1 | 0.39 | CCn1c(-c2cc(-c3ccn(CCN4CCOCC4)c(=O)c3)cnc2[C@H](C)OC)c2c3cc(ccc31)-c1csc(n1)C[C@H](NC(=O)[C@H]1[C@H](C)[C@@H]1C)C(=O)N1CCC[C@H](N1)C(=O)OCC(C)(C)C2 (atropisomer, axis not shown) [Compound 36, (1r,2R,3S)-N-((6^3S,4S,Z)-1^1-ethyl-1^2-(6-((S)-1-methoxyethyl)-1′-(2-morpholinoethyl)-2′-oxo-1′,2′-dihydro-[3,4′-bipyridin]-5-yl)-10,10-dimethyl-5,7-dioxo-6^1,6^2,6^3,6^4,6^5,6^6-hexahydro-1^1H-8-oxa-2(4,2)-thiazola-1(5,3)-indola-6(1,3)-pyridazinacycloundecaphane-4-yl)-2,3-dimethylcyclopropane-1-carboxamide]
6 | 1.8 | 0.9 | CCn1c(-c2cc(-c3cncc(CN4CCS(=O)(=O)CC4)c3)cnc2[C@H](C)OC)c2c3cc(ccc31)-c1csc(n1)C[C@H](NC(=O)[C@H]1[C@H](C)[C@@H]1C)C(=O)N1CCC[C@H](N1)C(=O)OCC(C)(C)C2 (atropisomer, axis not shown) [Compound 37, (1r,2R,3S)-N-((6^3S,4S,Z)-12-(5′-((1,1-dioxidothiomorpholino)methyl)-6-((S)-1-methoxyethyl)-[3,3′-bipyridin]-5-yl)-1^1-ethyl-10,10-dimethyl-5,7-dioxo-6^1,6^2,6^3,6^4,6^5,6^6-hexahydro-1^1H-8-oxa-2(4,2)-thiazola-1(5,3)-indola-6(1,3)-pyridazinacycloundecaphane-4-yl)-2,3-dimethylcyclopropane-1-carboxamide]
7 | 23 | 66 | CCn1c(-c2cc(-c3cnc(CN4CCS(=O)(=O)CC4)nc3)cnc2[C@H](C)OC)c2c3cc(ccc31)-c1csc(n1)C[C@H](NC(=O)[C@H]1C[C@@H]1C)C(=O)N1CCC[C@H](N1)C(=O)OCC(C)(C)C2 (atropisomer, axis not shown) [Compound 38, (1S,2S)-N-((6^3S,4S,Z)-1^2-(5-(2-((1,1-dioxidothiomorpholino)methyl)pyrimidin-5-yl)-2-((S)-1-methoxyethyl)pyridin-3-yl)-1^1-ethyl-10,10-dimethyl-5,7-dioxo-6^1,6^2,6^3,6^4,6^5,6^6-hexahydro-1^1H-8-oxa-2(4,2)-thiazola-1(5,3)-indola-6(1,3)-pyridazinacycloundecaphane-4-yl)-2-methylcyclopropane-1-carboxamide]
8 | 0.48 | 0.57 | CCn1c(-c2cc(-c3cnc(CN4CCOCC4)nc3)cnc2[C@H](C)OC)c2c3cc(ccc31)-c1csc(n1)C[C@H](NC(=O)[C@H]1[C@H](C)[C@@H]1C)C(=O)N1CCC[C@H](N1)C(=O)OCC(C)(C)C2 (atropisomer, axis not shown) [Compound 39, (1r,2R,3S)-N-((6^3S,4S,Z)-1^1-ethyl-1^2-(2-((S)-1-methoxyethyl)-5-(2-(morpholinomethyl)pyrimidin-5-yl)pyridin-3-yl)-10,10-dimethyl-5,7-dioxo-6^1,6^2,6^3,6^4,6^5,6^6-hexahydro-1H-8-oxa-2(4,2)-thiazola-1(5,3)-indola-6(1,3)-pyridazinacycloundecaphane-4-yl)-2,3-dimethylcyclopropane-1-carboxamide]
9 | 10 | 9.2 | CCn1c(-c2cc(-c3ccc(=O)n(CCN4CCOCC4)c3)cnc2[C@H](C)OC)c2c3cc(ccc31)-c1csc(n1)C[C@H](NC(=O)[C@H]1C[C@@H]1C)C(=O)N1CCC[C@H](N1)C(=O)OCC(C)(C)C2 (atropisomer, axis not shown) [Compound 40, (1S,2S)-N-((6^3S,4S,Z)-1^1-ethyl-1^2-(6-((S)-1-methoxyethyl)-1′-(2-morpholinoethyl)-6′-oxo-1′,6′-dihydro-[3,3′-bipyridin]-5-yl)-10,10-dimethyl-5,7-dioxo-6^1,6^2,6^3,6^4,6^5,6^6-hexahydro-1^1H-8-oxa-2(4,2)-thiazola-1(5,3)-indola-6(1,3)-pyridazinacycloundecaphane-4-yl)-2-methylcyclopropane-1-carboxamide]
